The source of these data is patent publication US9469854B2, “Pharmaceutical composition for treating liver diseases” (Academia Sinica, priority 2014, dated 2016).

The subject of one data set is hsa-miR-21-3p. Nature of the data set: miRNA microarray profiling of berberine-treated primary human hepatocytes. The class given is cell-based. As to conditions: PHHs from 3 donors, 40 μM berberine, 2 h.
A further data set deals with HepG2 cells. Nature of the data set: Trypan blue dye exclusion assay (viable cell number). The following applies: HepG2, 50 nM mimic transfection 48 h vs NC mimic. The class given is cell-based, human. As for the experimental part: FIG. 6A represents the number of viable HepG2 cells transfected with 50 nM of miR-21-3p mimic or negative-control (NC) mimic for 48 h, which is quantified using trypan blue dye exclusion assay. The data are represented as the mean±standard deviation for 3 independent experiments. The asterisk mark “*” indicates a significant difference with P<0.05.
(§1) The HepG2 cells were transfected at a density of 5×10^4 cells per well in a 24-well culture plates with either 50 nM of hsa-miR-21-3p (miR-21-3p mimic) or negative-control mimic (NC mimic), or with either 100 nM of hsa-miR-21-3p inhibitor (miR-21-3p inhibitor) or negative-control inhibitor (NC inhibitor) by using the DharmaFECT 4 transfection reagent (Thermo Scientific Dharmacon) according to the manufacturer's instructions. Cells were incubated for 24 h or 48 h with a microRNA mimic or inhibitor prior to RNA purification for gene expression analysis, and were incubated for 72 h for protein expression analysis.

Another data set has as its system ACACA mRNA. As to the kind of experiment: mRNA stability assay. The class given is cell-based, human.
The next data set has as its system DGAT2. Nature of the data set: Western blot protein expression in HepG2 cells. The class given is cell-based, human. As to conditions: HepG2, miR-21-3p over-expressed, 72 h. The protocol: (§2) The human HepG2 cells and HEK 293T cells used in the following examples were originally obtained from the American Tissue Culture Collection (ATCC, USA). The human HCC HepG2 cell line was cultured in Minimum Essential Medium Eagle (Sigma) supplemented with 10% fetal bovine serum (FBS) (Invitrogen), 2.2 g/L of sodium bicarbonate (Sigma), 0.1 mM of non-essential amino acids (Caisson), 1 mM of sodium pyruvate (Invitrogen), and 10 of ml/L penicillin-streptomycin-amphotericin solution (Biological Industries). Human HEK-293T cells were maintained in high-glucose Dulbecco's modified eagle medium (Invitrogen) supplemented with 10% FBS and 3.7 g/L of sodium bicarbonate (Sigma). Both cell lines were cultured at 37° C. and 5% CO2.
as §1
(§3) Total cell lysates were prepared using a lysis buffer (7 M of urea, 4% CHAPS, 2 M of thiourea, 40 mM of Tris, 65 mM of dithioerythritol). Protein samples were separated using 12.5% SDS-PAGE and then transferred to PVDF membranes. The following primary antibodies were used: rabbit polyclone anti-MAT1A (1:800, GeneTex), anti-MAT2A (1:1000, GeneTex), anti-MAT2B (1:1000, GeneTex), anti-ACACB (1:1000, Sigma), anti-DGAT2 (1:1000, GeneTex) and anti-GAPDH (1:3000, GeneTex) and mouse monoclone anti-ACACA (1:1000, Millipore). The goat polyclonal anti-rabbit or anti-mouse IgG antibody conjugated with HRP (1:5000, abcam) was used as the secondary antibody. The bands were imaged using the LAS-4000 mini luminescent image analyzer (Fujifilm). The quantification of western blot analysis was achieved by using Image J software. The protein expression levels were normalized to the GAPDH levels.

The next data set has as its system MAT1A. As to the kind of experiment: Western blot protein expression in HepG2 cells. The class given is cell-based, human. The following applies: HepG2, mimic transfection 72 h. The protocol: as §2, §1, §3
The next data set deals with ACACA. Nature of the data set: Western blot protein expression in HepG2 cells. The class given is cell-based, human. The following applies: HepG2, mimic transfection, 72 h. As for the experimental part:
as §2, §1, §3

The test system of the next data set is MAT2B. As to the kind of experiment: Western blot protein expression in HepG2 cells. As to conditions: HepG2, mimic transfection 72 h. The class given is cell-based, human. The protocol:
as §2, §1, §3

The test system of another data set is ACACB. As to the kind of experiment: Western blot protein expression in HepG2 cells. The class given is cell-based, human. The following applies: HepG2, mimic transfection, 72 h. The protocol: as §2, §1, §3
The subject of a further data set is MAT2A. Nature of the data set: Western blot protein expression in HepG2 cells. The class given is cell-based, human. The following applies: HepG2, mimic transfection 72 h. The protocol: as §2, §1, §3
A further data set relates to MAT2B 3′ UTR. As to the kind of experiment: Dual luciferase reporter assay in HepG2 cells. The class given is cell-based, human. As for the experimental part: (§4) Full-length 3′ UTRs of MAT2A and MAT2B were amplified from the genomic DNA of HepG2 cells through PCR.
(§5) The PCR products were then cloned into the pMIR-REPORT Luciferase miRNA Expression Reporter Vector (Invitrogen), and all inserted sequences in the 3′ UTR constructs were checked using the ABI PRISM DNA sequencer.
(§6) The mutagenesis of the target sequences of hsa-miR-21-3p in MAT2A and MAT2B 3′ UTRs was performed using the QuikChange site-directed mutagenesis kit (Agilent) according to the manufacturer's standard protocol.
(§7) All mutated sequences, including Site 1, Site 2 and the double mutation of the MAT2A and the 3′ UTR mutant construct of MAT2B, were checked through DNA sequencing.
(§8) The HEK-293T and HepG2 cells were seeded at a density of 5×10^4 cells per well in a 24-well culture plate the day before transfection. The HEK-293T and HepG2 cells were tri-transfected with (1) any one of the above-mentioned pMIR-REPORT-3′ UTR construction (300 ng), (2) the control Renilla luciferase reporter plasmid pRL-TK from Promega (10 ng), and (3) 50 nM of hsa-miR-21-3p mimic or negative-control mimic by using the Lipofectamine 2000 transfection reagent (Invitrogen) according to the manufacturer's instructions. Luciferase assays were performed after transfection for 48 h by using the Dual Luciferase reporter assay kit (Promega) and the Paradigm detection platform (Beckman) according to the manufacturer's protocol. The firefly luciferase activity was normalized relative to the Renilla luciferase activity.

The next data set has as its system MAT2A 3′ UTR. As to the kind of experiment: Dual luciferase reporter assay in HepG2 cells. The class given is cell-based, human. The protocol: as §4, §5, §6, §7, §8
The mark [1] stands for this setting: HepG2, wild-type 3′ UTR, 50 nM mimic, 48 h.

Experimental for hsa-miR-21-3p: The primary human hepatocytes from Caucasian donors were purchased from Invitrogen and cultured following the manufacturer's instructions. The hepatocytes were thawed and transferred into cryopreserved hepatocytes recovery medium (CM7000, Invitrogen), centrifuging at room temperature, 100×g for 10 min. Then, the hepatocytes were diluted to seeding density with plating medium (CM3000, Invitrogen) and added into collagen I-coated plates (Invitrogen). These plates were incubated at 37° C. for 4-6 hours under 5% CO2 for forming a monolayer. Then, plating medium was replaced by overlay incubation medium (CM4000 and 0.35 mg/mL Geltrex™ Matrix, Invitrogen), and the incubation medium was replaced daily. In the following examples, hepatocytes form 3 to 4 donors were used for experiments.
A 50 mM stock solution of berberine chloride (Sigma-Aldrich) was prepared in dimethyl sulfoxide (DMSO). […]
Total RNA was extracted using a TRIZOL reagent (Invitrogen) according to the manufacturer's protocol. The total RNA quantity was measured using a NanoDrop ND-1000 spectrophotometer (Nanodrop Technologies). […]
The miRNA profiling was performed using an Agilent human miRNA Microarray R14 V2 containing 866 human miRNAs. […] Microarrays were scanned following the Agilent microarray scanner protocol, and image analysis and quantification were performed using the Agilent Feature Extraction software (Agilent Technologies). […]

Turning to `COc1ccc2cc3[n+](cc2c1OC)CCc1cc2c(cc1-3)OCO2` [berberine], the “hsa-miR-21-3p expression increase (miRNA microarray), mean” value in the data set with hsa-miR-21-3p was 3.36 fold.
As for “hsa-miR-21-3p (CAACACCAGUCGAUGGGCUGU; listed as RNA, chemistry not given here) [miR-21-3p mimic]”, in the data set with HepG2 cells, the viable cell numbers result was “reduced the viable cell numbers”. The “half-life of ACACA mRNA” value in the data set on ACACA mRNA is “reduced the half-life of ACACA mRNA”. The “decrease in protein level of DGAT2” value in the data set with DGAT2 was determined as 3.3 fold. In addition, the “MAT1A protein expression increase” value in the data set with MAT1A is 1.7 fold. The “decrease in protein expression of ACACA” value in the data set with ACACA came out at 2.3 fold. Further, the “MAT2B protein expression decrease” value with MAT2B is reported as 3.4 fold. In addition, in the data set with ACACB, the “decrease in protein expression of ACACB” value came to 1.6 fold. In addition, the “MAT2A protein expression decrease” value in the data set with MAT2A turned out to be 2.6 fold. For the same compound, the “luciferase reporter expression change, mutated MAT2B 3′ UTR” value with MAT2B 3′ UTR (HepG2, seed match (+399-418) mutated) was “remained unchanged”. The “luciferase reporter expression decrease, MAT2B 3′ UTR” value in the data set with MAT2B 3′ UTR (setting [1]) stood at 1.4 fold. Besides, in the data set with MAT2A 3′ UTR (HepG2, Site 1 (+180-200) mutated), the “luciferase reporter expression decrease, Site 1 mutated MAT2A 3′ UTR” value was determined as 1.5 fold. For the same compound, the “luciferase reporter expression decrease, MAT2A 3′ UTR” value in the data set on MAT2A 3′ UTR (setting [1]) worked out at 1.5 fold. Besides, in the data set with MAT2A 3′ UTR (Site 2 (+1267-1288) mutated, cells not named in sentence (FIG. 5C: HEK293T and HepG2)), the “luciferase reporter expression change, Site 2 mutated MAT2A 3′ UTR” value is on record as “did not notably change”. Also, the “luciferase reporter expression change, double-mutated MAT2A 3′ UTR” value in the data set with MAT2A 3′ UTR (both Site 1 and Site 2 mutated, cells not named in sentence (FIG. 5C: HEK293T and HepG2)) is “did not notably change”.
